Measured values reported in publication PMC12521730, “Quantitative dual-isotope preclinical SPECT/CT imaging and biodistribution of the mercury-197m/g theranostic pair with [^197m/gHg]HgCl2 and a [^197m/gHg]Hg-tetrathiol complex as a platform for radiopharmaceutical development” (EJNMMI Radiopharmacy and Chemistry, 2025).

Assay: L-Glutathione (GSH) competition assay
Format: physicochemical
Conditions: 37 °C, 72 h, 2.12 mM GSH
Protocol: GSH competition assay procedures closely followed those previously developed by our group (Randhawa et al. [2023]). To the [^197m/gHg][Hg(Tetrathiol)]^2− (prepared as described above) or radiolabeling controls (DMSO instead of the ligand) was added to a 50 mM L-glutathione (GSH) solution (1:22 v/v GSH:reaction solution dilution), and the mixtures were incubated at 37 °C over 72 h. The final GSH concentration was chosen to mimic in vivo conditions within cells (2.12 mM) (Dickinson and Forman [2002]). The proportion of intact radiolabeled complex was monitored over the course of 72 h using iTLC-SG and L-glutathione (50 mM) as the mobile phase. Under these conditions, uncomplexed ^197m/gHg^2+ resulting from GSH transchelation traveled to the solvent front (Rf = 1) while intact [^197m/gHg][Hg(Tetrathiol)]^2− remained at the baseline (Rf = 0).

O=C(CC[S-])OCC(COC(=O)CC[S-])(COC(=O)CC[S-])COC(=O)CC[S-].[Hg+2] [[^197m/gHg]Hg-Tetrathiol]
stability when challenged against GSH: no evidence of decomposition or transchelation
